Molecules are shown by their SMILES.

Broadly, the IC50 is the concentration that inhibits the measured activity by half. Low values mean higher potency, high ones lower potency.

The target in the assay is Thymidylate synthase (Homo sapiens, UniProt P04818). Description: Inhibition of thymidylate synthase.
Thymidylate synthase, sequence (P04818 whole entry): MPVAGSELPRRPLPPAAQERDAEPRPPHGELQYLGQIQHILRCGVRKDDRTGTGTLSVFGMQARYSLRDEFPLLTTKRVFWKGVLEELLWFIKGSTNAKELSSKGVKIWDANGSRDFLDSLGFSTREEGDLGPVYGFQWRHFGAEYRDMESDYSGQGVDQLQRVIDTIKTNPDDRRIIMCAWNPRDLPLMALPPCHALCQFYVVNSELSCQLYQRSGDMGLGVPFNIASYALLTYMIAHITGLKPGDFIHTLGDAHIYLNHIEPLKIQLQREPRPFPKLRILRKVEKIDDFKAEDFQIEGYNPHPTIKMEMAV
Regarding `Cc1nc2ccc(CN(C)c3ccc(C(=O)N[C@@H](CCC(=O)O)C(=O)O)cn3)cc2c(=O)[nH]1`, the IC50 is 4.27 µM.

Compound `Cc1nc2ccc(CN(C)c3cnc(C(=O)N[C@@H](CCC(=O)O)C(=O)O)nc3)cc2c(=O)[nH]1` showed an IC50 of 2.34 µM.

Compound `C=CCN(Cc1ccc2nc(C)[nH]c(=O)c2c1)c1ccc(C(=O)N[C@@H](CCC(=O)O)C(=O)O)nc1` gave an IC50 of 0.759 µM.

In the case of `Cc1nc2ccc(CN(CCF)c3ccc(C(=O)N[C@@H](CCC(=O)O)C(=O)O)nc3)cc2c(=O)[nH]1`, the IC50 was 0.158 µM.
